We go through one compound from publication PMC3939009, “Thrombin inhibitory activity of some polyphenolic compounds” (Medicinal Chemistry Research, 2013).

In this assay the target is human thrombin (Homo sapiens, UniProt P00734). Kind of assay: SDS-PAGE analysis of thrombin-induced cross-linked fibrin formation. Further details: Thrombin, also known as an active plasma coagulation factor II; purchased Sigma-Aldrich Chemical Co. (St. Louis, MO, USA) T7009; host or cells: purified from human plasma. It counts as biochemical. The procedure: In these preparations, to nine volumes of thrombin one volume of polyphenolic compounds was added (final thrombin concentration was 15.8 nM). All tested compounds were dissolved in 50 % DMSO to the initial concentration of 10 mM; other solutions of compounds were also prepared in 50 % DMSO (prepared in 50 mM TBS, pH 7.4). The final concentration of DMSO in thrombin samples was 5 %. To prepare thrombin control samples, the same volume of solvent (50 % DMSO prepared in 50 mM TBS, pH 7.4) was added as in the case of the compound volume and warmed for 10 min to 37 °C.
The reactions incubated at 37 °C were stopped after 5, 15 and 30 min by adding 150 μl of lysis buffer (0.125 M Tris/HCl, 4 % SDS, 8 M urea, 10 % β-mercaptoethanol, pH 6.8). Samples were subjected to SDS-PAGE (polyacrylamide concentration—7.5 %) using Mini-Protean Electrophoresis Cell (Bio-Rad, Hercules, CA). Proteins were stained with Coomassie Brilliant Blue R250 (CBB).

Regarding `O=c1c(O)c(-c2ccc(O)c(O)c2)oc2cc(O)cc(O)c12` [Quercetin, quercetin], the “Effect on formation of γ–γ chains and α-polymers” value (at IC50 concentration of amidolytic inhibition: cyanidin […], quercetin 1.5 μM) is “also inhibited the formation of γ–γ chains and α-polymers”; the “Effect on formation of γ–γ chains and α-polymers” value (ten times IC50: cyanidin […], quercetin 15 μM, silybin 250 μM) was “significantly inhibited the formation of γ–γ chains and α-polymers”.
